Experimental data taken from publication PMC5218480 (PLoS ONE, 2017).

Test system: MV-4-11 cells
Assay: Gene expression microarray analysis (Affymetrix PrimeView) and GSEA
Format: cell-based, human
Design: RFU PODN (11730768_x_at) / Fold change /veh PODN (11730768_x_at) / RFU LINC00158 (11744669_a_at) / Fold change /veh LINC00158 (11744669_a_at) / RFU DUSP10 (11751237_a_at) / Fold change /veh DUSP10 (11751237_a_at) / RFU ID3 (11757404_x_at) / Fold change /veh ID3 (11757404_x_at) / RFU PLEKHG5 (11737974_s_at) / Fold change /veh PLEKHG5 (11737974_s_at) / RFU LRRC4B (11730491_at) / Fold change /veh LRRC4B (11730491_at) / RFU GIMAP4 (11747438_a_at) / Fold change /veh GIMAP4 (11747438_a_at) / RFU KRT8 (11758183_x_at) / Fold change /veh KRT8 (11758183_x_at) / RFU CNN1 (11734310_a_at) / Fold change /veh CNN1 (11734310_a_at) / RFU VPS37D (11726825_at) / Fold change /veh VPS37D (11726825_at) / RFU C10orf10 (11716522_x_at) / Fold change /veh C10orf10 (11716522_x_at) / RFU KIR2DL2 /// KIR2DL4 /// KIR2DL5A /// KIR2DL5B /// KIR2DS1 /// KIR2DS2 /// KIR2DS3 /// KIR2DS4 /// KIR3DL3 /// KIR3DL3 /// KIR3DS1 (11738374_at) / Fold change /veh KIR2DL2 /// KIR2DL4 /// KIR2DL5A /// KIR2DL5B /// KIR2DS1 /// KIR2DS2 /// KIR2DS3 /// KIR2DS4 /// KIR3DL3 /// KIR3DL3 /// KIR3DS1 (11738374_at) / RFU C1QL1 (11718748_at) / Fold change /veh C1QL1 (11718748_at) / RFU TMPRSS4 (11747572_a_at) / Fold change /veh TMPRSS4 (11747572_a_at) / RFU HAMP (11756126_x_at) / Fold change /veh HAMP (11756126_x_at) / RFU RNFT2 (11725882_a_at) / Fold change /veh RNFT2 (11725882_a_at) / RFU NR4A2 (11747474_a_at) / Fold change /veh NR4A2 (11747474_a_at) / RFU ABCC12 (11746883_a_at) / Fold change /veh ABCC12 (11746883_a_at) / RFU TMEM136 (11760407_x_at) / Fold change /veh TMEM136 (11760407_x_at) / RFU CLDN22 /// WWC2 (11732394_at) / Fold change /veh CLDN22 /// WWC2 (11732394_at) / RFU HLA-DPB1 (11760878_x_at) / Fold change /veh HLA-DPB1 (11760878_x_at) / RFU SPINT1 (11716480_a_at) / Fold change /veh SPINT1 (11716480_a_at) / RFU GAP43 (11754022_s_at) / Fold change /veh GAP43 (11754022_s_at) / RFU A4GNT (11735810_at) / Fold change /veh A4GNT (11735810_at) / RFU PRB3 (11715151_x_at) / Fold change /veh PRB3 (11715151_x_at) / RFU TUBB4B (11761932_at) / Fold change /veh TUBB4B (11761932_at) / RFU CAPN14 (11732068_a_at) / Fold change /veh CAPN14 (11732068_a_at) / RFU TMCC2 (11721928_a_at) / Fold change /veh TMCC2 (11721928_a_at) / RFU IRGQ (11745062_a_at) / Fold change /veh IRGQ (11745062_a_at) / RFU FAM174B (11720279_a_at) / Fold change /veh FAM174B (11720279_a_at) / RFU TMPRSS4 (11748680_a_at) / Fold change /veh TMPRSS4 (11748680_a_at) / RFU FAM212B (11763350_a_at) / Fold change /veh FAM212B (11763350_a_at) / RFU PLEKHG5 (11743358_a_at) / Fold change /veh PLEKHG5 (11743358_a_at) / RFU ZSCAN30 (11745921_a_at) / Fold change /veh ZSCAN30 (11745921_a_at) / RFU CMKLR1 (11741424_a_at) / Fold change /veh CMKLR1 (11741424_a_at) / RFU LOC101060620 /// MAPK8IP1 (11723275_at) / Fold change /veh LOC101060620 /// MAPK8IP1 (11723275_at) / RFU SPTSSB (11747773_x_at) / Fold change /veh SPTSSB (11747773_x_at) / RFU PRSS12 (11739890_at) / Fold change /veh PRSS12 (11739890_at) / RFU BIN1 (11741810_x_at) / Fold change /veh BIN1 (11741810_x_at) / RFU WNT11 (11732464_a_at) / Fold change /veh WNT11 (11732464_a_at) / RFU C10orf10 (11716521_a_at) / Fold change /veh C10orf10 (11716521_a_at) / RFU C5orf56 (11738089_at) / Fold change /veh C5orf56 (11738089_at) / RFU CYB561 (11721691_x_at) / Fold change /veh CYB561 (11721691_x_at) / RFU ANKRD19P (11752326_a_at) / Fold change /veh ANKRD19P (11752326_a_at) / RFU OR2T12 /// OR2T33 /// OR2T8 (11738714_s_at) / Fold change /veh OR2T12 /// OR2T33 /// OR2T8 (11738714_s_at) / RFU VCAN (11748164_a_at) / Fold change /veh VCAN (11748164_a_at) / RFU JSRP1 (11732532_at) / Fold change /veh JSRP1 (11732532_at) / RFU KRTAP10-11 (11738290_x_at) / Fold change /veh KRTAP10-11 (11738290_x_at) / RFU MYO3A (11730013_a_at) / Fold change /veh MYO3A (11730013_a_at) / RFU EBF3 (11725865_a_at) / Fold change /veh EBF3 (11725865_a_at) / RFU CAMK2N1 (11719241_x_at) / Fold change /veh CAMK2N1 (11719241_x_at) / RFU C5orf56 (11738088_a_at) / Fold change /veh C5orf56 (11738088_a_at) / RFU OLFML3 (11715873_a_at) / Fold change /veh OLFML3 (11715873_a_at) / RFU LOC100653217 /// NTM (11731650_a_at) / Fold change /veh LOC100653217 /// NTM (11731650_a_at) / RFU MAPK11 (11762145_a_at) / Fold change /veh MAPK11 (11762145_a_at) / RFU FIZ1 (11724087_x_at) / Fold change /veh FIZ1 (11724087_x_at) / RFU OASL (11726364_x_at) / Fold change /veh OASL (11726364_x_at) / RFU SOX15 (11748057_x_at) / Fold change /veh SOX15 (11748057_x_at) / RFU CD79A (11719716_a_at) / Fold change /veh CD79A (11719716_a_at) / RFU HIST1H1D (11736915_at) / Fold change /veh HIST1H1D (11736915_at) / RFU CASKIN2 (11723855_a_at) / Fold change /veh CASKIN2 (11723855_a_at) / RFU LOC730098 (11760151_x_at) / Fold change /veh LOC730098 (11760151_x_at) / RFU OR4N2 (11742367_at) / Fold change /veh OR4N2 (11742367_at) / RFU PRRT2 (11749266_a_at) / Fold change /veh PRRT2 (11749266_a_at) / RFU SNX32 (11753110_a_at) / Fold change /veh SNX32 (11753110_a_at) / RFU CDHR5 (11726645_a_at) / Fold change /veh CDHR5 (11726645_a_at) / RFU RCAN1 (11760418_a_at) / Fold change /veh RCAN1 (11760418_a_at) / RFU FAM167A (11723789_a_at) / Fold change /veh FAM167A (11723789_a_at) / RFU FAM26E (11764081_at) / Fold change /veh FAM26E (11764081_at) / RFU ISYNA1 (11749810_s_at) / Fold change /veh ISYNA1 (11749810_s_at) / RFU ACY1 (11761880_at) / Fold change /veh ACY1 (11761880_at) / RFU 11764098_at / Fold change /veh 11764098_at / RFU SAMD14 (11745864_x_at) / Fold change /veh SAMD14 (11745864_x_at) / RFU NPB (11741838_a_at) / Fold change /veh NPB (11741838_a_at) / RFU TMPRSS6 (11731388_a_at) / Fold change /veh TMPRSS6 (11731388_a_at) / RFU KRTAP10-2 (11738614_at) / Fold change /veh KRTAP10-2 (11738614_at) / RFU ARHGAP8 /// PRR5-ARHGAP8 (11727945_x_at) / Fold change /veh ARHGAP8 /// PRR5-ARHGAP8 (11727945_x_at) / RFU KRTAP5-7 /// NADSYN1 (11734609_at) / Fold change /veh KRTAP5-7 /// NADSYN1 (11734609_at) / RFU RASL12 (11751679_a_at) / Fold change /veh RASL12 (11751679_a_at) / RFU CDKN2B (11736163_a_at) / Fold change /veh CDKN2B (11736163_a_at) / RFU PRF1 (11729649_at) / Fold change /veh PRF1 (11729649_at) / RFU, ZNF638 /// ZNF638-IT1 / Fold change vs veh, ZNF638 /// ZNF638-IT1 / RFU, PANK3 / Fold change vs veh, PANK3 / RFU, SH3YL1 / Fold change vs veh, SH3YL1 / RFU, ZEB2 / Fold change vs veh, ZEB2 / RFU, NRIP1 / Fold change vs veh, NRIP1 / RFU, PTTG1IP / Fold change vs veh, PTTG1IP / RFU, CAPN2 / Fold change vs veh, CAPN2 / RFU, MED14 / Fold change vs veh, MED14 / RFU, SNORA58 / Fold change vs veh, SNORA58 / RFU, C1orf63 / Fold change vs veh, C1orf63 / RFU, LRRFIP1 / Fold change vs veh, LRRFIP1 / RFU, NDUFAF7 / Fold change vs veh, NDUFAF7 / RFU, SLC12A2 / Fold change vs veh, SLC12A2 / RFU, IBTK / Fold change vs veh, IBTK / RFU, ESF1 / Fold change vs veh, ESF1 / Fold change vs veh, TMEM50B / RFU, TAOK1 / Fold change vs veh, TAOK1 / RFU, ACBD3 / Fold change vs veh, ACBD3 / RFU, TMA16 / Fold change vs veh, TMA16 / RFU, RWDD3 / Fold change vs veh, RWDD3 / RFU, BCAT1 / Fold change vs veh, BCAT1 / RFU, EDEM3 / Fold change vs veh, EDEM3 / RFU, TMEM33 / Fold change vs veh, TMEM33 / RFU, WDR75 / Fold change vs veh, WDR75 / RFU, AHCTF1 / Fold change vs veh, AHCTF1 / RFU, TFRC / Fold change vs veh, TFRC / RFU, ZDHHC17 / Fold change vs veh, ZDHHC17 / RFU, NOM1 / Fold change vs veh, NOM1 / RFU, ARL8B / Fold change vs veh, ARL8B / RFU, ZBTB11 / Fold change vs veh, ZBTB11 / RFU, TAMM41 / Fold change vs veh, TAMM41 / RFU, KIAA1704 /// LOC100996395 / Fold change vs veh, KIAA1704 /// LOC100996395 / RFU, ING1 / Fold change vs veh, ING1 / RFU, TRMT61B / Fold change vs veh, TRMT61B / RFU, FUBP3 / Fold change vs veh, FUBP3 / RFU, TP53 / Fold change vs veh, TP53 / RFU, TNKS2 / Fold change vs veh, TNKS2 / RFU, ZFP14 / Fold change vs veh, ZFP14 / RFU, ACTR2 / Fold change vs veh, ACTR2 / RFU, PPP3R1 / Fold change vs veh, PPP3R1 / RFU, PIK3R1 / Fold change vs veh, PIK3R1 / RFU, HNRNPA1 / Fold change vs veh, HNRNPA1 / RFU, RNF170 / Fold change vs veh, RNF170 / RFU, ZNF28 / Fold change vs veh, ZNF28 / RFU, RNGTT / Fold change vs veh, RNGTT / RFU, OGT / Fold change vs veh, OGT / RFU, BRD1 / Fold change vs veh, BRD1 / RFU, MARS / Fold change vs veh, MARS / RFU, ZNF655 / Fold change vs veh, ZNF655 / RFU, FAHD1 / Fold change vs veh, FAHD1 / RFU, BDP1 / Fold change vs veh, BDP1 / RFU, LRRCC1 / Fold change vs veh, LRRCC1 / RFU, ARID1A / Fold change vs veh, ARID1A / RFU, ZNF146 / Fold change vs veh, ZNF146 / RFU, ZNF330 / Fold change vs veh, ZNF330 / RFU, GPN3 / Fold change vs veh, GPN3 / RFU, C9orf123 / Fold change vs veh, C9orf123 / RFU, N4BP2L2 / Fold change vs veh, N4BP2L2 / RFU, ARFIP1 / Fold change vs veh, ARFIP1 / RFU, FAM179B / Fold change vs veh, FAM179B / RFU, BCL10 / Fold change vs veh, BCL10 / RFU, UHRF1BP1L / Fold change vs veh, UHRF1BP1L / RFU, BET1 / Fold change vs veh, BET1 / RFU, CNOT2 / Fold change vs veh, CNOT2 / RFU, ZNF268 / Fold change vs veh, ZNF268 / Fold change vs veh, ZNF507 / RFU, DGCR2 / Fold change vs veh, DGCR2 / RFU, WDSUB1 / Fold change vs veh, WDSUB1 / Fold change vs veh, HSP90B1 /// MIR3652 / RFU, ADSS / Fold change vs veh, ADSS / RFU, GK / Fold change vs veh, GK / RFU, ZNF148 / Fold change vs veh, ZNF148 / RFU, TAF9 / Fold change vs veh, TAF9 / RFU, SLC1A5 / Fold change vs veh, SLC1A5 / RFU, SLMO2 / Fold change vs veh, SLMO2 / RFU, ABCC4 / Fold change vs veh, ABCC4 / RFU, LOC101060439 /// RAP1B / Fold change vs veh, LOC101060439 /// RAP1B / RFU, RFX7 / Fold change vs veh, RFX7 / RFU, GTPBP10 / Fold change vs veh, GTPBP10 / RFU, CNEP1R1 / Fold change vs veh, CNEP1R1 / RFU, BIVM-ERCC5 /// ERCC5 / Fold change vs veh, BIVM-ERCC5 /// ERCC5 / RFU, ILF3 / Fold change vs veh, ILF3 / RFU 11762660_at / Fold change /veh 11762660_at / RFU VCAN (11757783_s_at) / Fold change /veh VCAN (11757783_s_at) / RFU DDX43 (11728927_at) / Fold change /veh DDX43 (11728927_at) / RFU KRT8 (11758188_x_at) / Fold change /veh KRT8 (11758188_x_at) / RFU NKD1 (11759106_at) / Fold change /veh NKD1 (11759106_at) / RFU SRD5A1 (11742802_a_at) / Fold change /veh SRD5A1 (11742802_a_at) / RFU TPSAB1 /// TPSB2 (11721975_s_at) / Fold change /veh TPSAB1 /// TPSB2 (11721975_s_at) / RFU GSTM3 (11746129_a_at) / Fold change /veh GSTM3 (11746129_a_at) / RFU IL23R (11737362_x_at) / Fold change /veh IL23R (11737362_x_at) / RFU TMEM51 (11727254_a_at) / Fold change /veh TMEM51 (11727254_a_at) / RFU PIWIL2 (11732686_x_at) / Fold change /veh PIWIL2 (11732686_x_at) / RFU ORM1 (11744905_x_at) / Fold change /veh ORM1 (11744905_x_at) / RFU CCDC152 (11743942_at) / Fold change /veh CCDC152 (11743942_at) / RFU ECM1 (11717891_a_at) / Fold change /veh ECM1 (11717891_a_at) / RFU IL23R (11748794_a_at) / Fold change /veh IL23R (11748794_a_at) / RFU TNFAIP8L3 (11732012_x_at) / Fold change /veh TNFAIP8L3 (11732012_x_at) / RFU MBOAT4 (11741988_at) / Fold change /veh MBOAT4 (11741988_at) / RFU 11764193_at / Fold change /veh 11764193_at / RFU TMEM53 (11763286_at) / Fold change /veh TMEM53 (11763286_at) / RFU MAGEB2 (11727129_at) / Fold change /veh MAGEB2 (11727129_at) / RFU TMEM200A (11744735_a_at) / Fold change /veh TMEM200A (11744735_a_at) / RFU CCDC152 (11751479_a_at) / Fold change /veh CCDC152 (11751479_a_at) / RFU FAM211A (11726209_a_at) / Fold change /veh FAM211A (11726209_a_at) / RFU RGS16 (11746705_a_at) / Fold change /veh RGS16 (11746705_a_at) / RFU VCAN (11755009_s_at) / Fold change /veh VCAN (11755009_s_at) / RFU RHOB (11743442_s_at) / Fold change /veh RHOB (11743442_s_at) / RFU RGS16 (11720943_a_at) / Fold change /veh RGS16 (11720943_a_at) / RFU RGS16 (11720944_at) / Fold change /veh RGS16 (11720944_at) / RFU, VPS4B / Fold change vs veh, VPS4B / RFU, CREB1 / Fold change vs veh, CREB1 / RFU, DNAJC13 / Fold change vs veh, DNAJC13 / RFU, GNAQ / Fold change vs veh, GNAQ / RFU, CDK5R1 / Fold change vs veh, CDK5R1 / RFU, ZRANB3 / Fold change vs veh, ZRANB3 / RFU, CUL4A / Fold change vs veh, CUL4A / RFU, CCNY / Fold change vs veh, CCNY / RFU, UFL1 / Fold change vs veh, UFL1 / RFU, COG3 / Fold change vs veh, COG3 / RFU, DIAPH2 / Fold change vs veh, DIAPH2 / RFU, SKA2 / Fold change vs veh, SKA2 / RFU, AFF3 / Fold change vs veh, AFF3 / RFU, LMF1 / Fold change vs veh, LMF1 / RFU, IPO11 / Fold change vs veh, IPO11 / RFU, DFFB / Fold change vs veh, DFFB / RFU, FOXP1 / Fold change vs veh, FOXP1 / RFU, CARD8 / Fold change vs veh, CARD8 / RFU, STRN3 / Fold change vs veh, STRN3 / RFU, ADK / Fold change vs veh, ADK / RFU, RASSF2 / Fold change vs veh, RASSF2 / RFU, WIPF1 / Fold change vs veh, WIPF1 / RFU, LARP1B / Fold change vs veh, LARP1B / RFU, RASA1 / Fold change vs veh, RASA1 / RFU, RB1 / Fold change vs veh, RB1 / RFU, PPFIA1 / Fold change vs veh, PPFIA1 / RFU, MAT2A / Fold change vs veh, MAT2A / RFU, CCT5 / Fold change vs veh, CCT5 / RFU, WDR92 / Fold change vs veh, WDR92 / RFU, CUX1 / Fold change vs veh, CUX1 / RFU, TTC7A / Fold change vs veh, TTC7A / RFU, TMEM135 / Fold change vs veh, TMEM135 / RFU, DEPTOR / Fold change vs veh, DEPTOR / RFU, CPM / Fold change vs veh, CPM / RFU, DNAJB6 / Fold change vs veh, DNAJB6 / RFU, CACNA2D3 / Fold change vs veh, CACNA2D3 / RFU, DTX4 / Fold change vs veh, DTX4 / RFU, TFCP2 / Fold change vs veh, TFCP2 / RFU, GMCL1 /// GMCL1P1 / Fold change vs veh, GMCL1 /// GMCL1P1 / RFU, AEBP2 / Fold change vs veh, AEBP2 / RFU, SNHG1 /// SNORD22 /// SNORD25 /// SNORD26 /// SNORD27 /// SNORD28 /// SNORD29 /// SNORD31 / Fold change vs veh, SNHG1 /// SNORD22 /// SNORD25 /// SNORD26 /// SNORD27 /// SNORD28 /// SNORD29 /// SNORD31 / Fold change (Aza/veh), C12orf56 (ProbeSet 11735607_a_at) / Fold change (ACY-1035/veh), C12orf56 (ProbeSet 11735607_a_at) / Fold change (Aza/veh), FGFR1OP (ProbeSet 11751329_s_at) / Fold change (ACY-1035/veh), FGFR1OP (ProbeSet 11751329_s_at) / Fold change (Aza/veh), VPS36 (ProbeSet 11739960_a_at) / Fold change (ACY-1035/veh), VPS36 (ProbeSet 11739960_a_at) / RFU SYPL1 (11715823_x_at) / Fold change /veh SYPL1 (11715823_x_at) / RFU IGFBP7 (11715501_s_at) / Fold change /veh IGFBP7 (11715501_s_at) / RFU REEP3 (11722064_at) / Fold change /veh REEP3 (11722064_at) / RFU IGLL1 (11728026_x_at) / Fold change /veh IGLL1 (11728026_x_at): dose or concentration left out as unconfirmed
Conditions: ProbeSet 11743882_a_at; LIST D

Nc1ncn([C@@H]2O[C@H](CO)[C@@H](O)[C@H]2O)c(=O)n1 [azacitidine]
Fold change vs veh, STRN3: 0.74
